Active and inactive are the calls of the source.

Test [1] can be described thus: NIH/3T3 fibroblast cytotoxicity, dose response, cytotoxicity control for T. cruzi growth inhibitor project, cell-based, cherry-pick samples, set 2 (AID 651817). The test is classed as functional. Conditions: NIH3T3.
Test [2] is described as follows: inhibitors of TNFa-stimulated NF-kB luciferase reporter, dose response, selectivity assay for EBV LMP1 NF-kB inhibitor project, HEK293 LMP1 reporter cells, dry powder, set 2 (AID 624369). The format is functional. A general note: Reporter assays use an easily measured gene product as a stand-in for the process of interest.
Test [3] is described as follows: LMP1-driven NF-kB reporter inhibition, dose response, cell-based, luciferase reporter, luminescence, dry powder, set 2 (AID 624376). The format is functional.
The nature of test [4]: HEK293 cell viability, dose response, counter-screen for EBV LMP1 inhibitor project, dry powder, set 2 (AID 624374). The test is classed as functional.
For test [5], the target named is Protein disulfide-isomerase (Homo sapiens, UniProt P07237). The test is described as follows: PDI inhibitors, insulin turbidity readout, confirmation, biochemical, dry powder samples, set 2 (AID 652146).
The nature of test [6]: A375 melanoma cell cytotoxicity, dose response, counter-screen for MITF inhibitor project, CellTiter-Glo luminescence, dry powder, set 2 (AID 624489).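 Also: actives are compounds lowering A375 viability meaning general cytotoxicity.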 The test is classed as functional, cell-based. The note with it: A-375. (A counterscreen serves to expose hits that act by an unwanted route or on another target.)
Test [7] can be described thus: A375 melanoma cell viability loss, dose response, counter-screen for MITF inhibitor project, CellTiter-Glo luminescence, dry powder, set 4 (AID 624364).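 Also: A375 melanoma cells are MITF independent so this is a counter screen.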 The format is functional, cell-based. Conditions: A-375.
Another test has as its target NS3 (Hepatitis C virus, UniProt A3EZJ3). The test is described as follows: HCV NS3 helicase inhibitor potency, dose response, biochemical, fluorescence polarization, ChemBridge library (AID 743264). On the technique in general: In fluorescence polarisation assays a small probe gives low polarisation when free and higher when bound to something large.

Chain of Protein disulfide-isomerase (P07237 whole entry): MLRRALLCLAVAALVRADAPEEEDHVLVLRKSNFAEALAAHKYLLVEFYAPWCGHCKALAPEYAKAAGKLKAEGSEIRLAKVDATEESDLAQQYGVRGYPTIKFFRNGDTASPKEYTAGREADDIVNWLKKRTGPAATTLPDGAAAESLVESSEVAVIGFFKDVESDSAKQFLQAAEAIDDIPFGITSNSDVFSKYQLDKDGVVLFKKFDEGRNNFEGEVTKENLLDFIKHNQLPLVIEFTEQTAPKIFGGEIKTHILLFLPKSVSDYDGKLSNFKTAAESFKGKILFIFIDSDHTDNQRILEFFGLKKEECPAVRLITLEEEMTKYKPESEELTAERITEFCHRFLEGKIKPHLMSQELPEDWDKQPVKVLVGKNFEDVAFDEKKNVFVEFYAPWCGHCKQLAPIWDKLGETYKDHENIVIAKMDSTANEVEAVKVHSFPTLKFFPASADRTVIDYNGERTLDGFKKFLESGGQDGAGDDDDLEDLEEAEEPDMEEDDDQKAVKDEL
Chain of NS3 (A3EZJ3 whole entry): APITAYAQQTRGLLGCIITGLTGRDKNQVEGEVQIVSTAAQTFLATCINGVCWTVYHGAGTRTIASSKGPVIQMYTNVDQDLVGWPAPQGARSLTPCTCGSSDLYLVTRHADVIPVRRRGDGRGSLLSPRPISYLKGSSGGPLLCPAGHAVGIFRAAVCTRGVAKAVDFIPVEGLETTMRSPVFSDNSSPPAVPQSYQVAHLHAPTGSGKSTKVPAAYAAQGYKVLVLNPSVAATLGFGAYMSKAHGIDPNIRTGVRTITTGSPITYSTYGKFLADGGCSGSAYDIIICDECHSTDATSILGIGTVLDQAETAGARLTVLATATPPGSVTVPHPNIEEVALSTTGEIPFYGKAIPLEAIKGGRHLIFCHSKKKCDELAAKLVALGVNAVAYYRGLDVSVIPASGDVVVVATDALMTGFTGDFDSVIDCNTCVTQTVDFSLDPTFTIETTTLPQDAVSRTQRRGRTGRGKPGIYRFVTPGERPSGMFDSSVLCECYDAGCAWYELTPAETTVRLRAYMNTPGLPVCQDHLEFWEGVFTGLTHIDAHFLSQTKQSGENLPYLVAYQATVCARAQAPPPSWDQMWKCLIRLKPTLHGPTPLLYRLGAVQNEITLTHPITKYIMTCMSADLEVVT

Usually AC50 stands for the midpoint of the concentration-response curve, whichever way the signal moves. Take `C[C@H](CO)N1C[C@H](C)[C@H](CN(C)S(=O)(=O)c2ccccc2)Oc2c(NC(=O)c3nc4ccccc4s3)cccc2C1=O`: the AC50 in test [1] is 22.6 µM (active).

`O=C(C[C@@H]1CC[C@H]2[C@@H](COC[C@H](O)CN2Cc2ccc(Oc3ccccc3)cc2)O1)N1CCc2ccccc2C1`: in test [2], the AbsAC35 was determined as 67.78 µM.

In turn, `COc1cccc(S(=O)(=O)N(C)C[C@@H]2Oc3cc(C4=CCCCC4)ccc3S(=O)(=O)N([C@@H](C)CO)C[C@@H]2C)c1` registered an AbsAC35 in test [3] of 50.42 µM.

Consider `CC(C)(C)[S@@+]([O-])N1Cc2cc(C(=O)NCc3ccccc3F)nc(-c3cccc(-c4cccnc4)c3)c2[C@H]1CCO`, for which the AbsAC35 in test [4] is 245.66 µM.

As for `C/C1=C\C[C@H](OC(=O)c2ccc(O)cc2)/C(C)=C/[C@@H](O)C(C)(C)CCC1`, the AC50 in test [5] was 2 µM (active).

In the case of `O=C1C(NS(=O)(=O)c2ccc(Br)s2)=C(N2CCOCC2)C(=O)c2ccccc21`, the AC50 in test [6] and in test [7] was > 70 µM (inactive) throughout.

As usually defined, the IC50 is the concentration at which inhibition is half-maximal. Regarding `O=C1NC(=O)C(=Cc2ccc(-c3cc([N+](=O)[O-])ccc3O)o2)C(=O)N1`, the IC50 on NS3 was 66.1 µM (active).

Values taken from ChEMBL document CHEMBL1201862, “PubChem BioAssay data set” (2004).
